From PubChem BioAssay (NCI)
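Method: 48-hour compound exposure of cells in 96-well plates, five concentrations, linear interpolation of endpoints. GI50 is the concentration that inhibits growth by half. TGI denotes the concentration required for complete inhibition of growth.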

Assays:
Experiment in all cases: NCI anticancer screen, dose series, 48 h
[1] = system: SNB-75 CNS
[2] = system: BT-549 breast
[3] = system: KM12 colon
[4] = system: MDA-MB-468 breast
[5] = system: SK-MEL-5 melanoma
[6] = system: IGROV1 ovarian
[7] = system: NCI-H460 lung
[8] = system: HCT-15 colon
[9] = system: SF-539 CNS
[10] = system: SK-OV-3 ovarian
[11] = system: EKVX NSCLC
[12] = system: A498 renal
[13] = system: HCC-2998 colon
[14] = system: HT29 colon
[15] = system: MOLT-4 leukemia
[16] = system: SF-268 CNS
[17] = system: ACHN renal
[18] = system: OVCAR-3 ovarian
[19] = system: SNB-19 CNS
[20] = system: HOP-92 NSCLC
[21] = system: SN12C renal
[22] = system: MDA-MB-435
[23] = system: UO-31 renal
[24] = system: HOP-62 NSCLC
[25] = system: SK-MEL-2 melanoma
[26] = system: SK-MEL-28 melanoma
[27] = system: SW-620 colon
[28] = system: TK-10 renal
[29] = system: UACC-257 melanoma
[30] = system: 786-0 renal
[31] = system: DU-145 prostate
[32] = system: PC-3 prostate
[33] = system: SR leukemia
[34] = system: OVCAR-4 ovarian
[35] = system: M14 melanoma
[36] = system: CAKI-1 renal
[37] = system: COLO 205 colon
[38] = system: RXF 393 renal
[39] = system: MALME-3M melanoma
[40] = system: OVCAR-5 ovarian
[41] = system: UACC-62 melanoma
[42] = system: NCI-H23 lung
[43] = system: NCI-H522 lung
[44] = system: T-47D breast
[45] = system: SF-295 CNS
[46] = system: NCI-H226 lung
[47] = system: NCI/ADR-RES ovarian
[48] = system: MDA-MB-231 breast
[49] = system: LOX IMVI melanoma
[50] = system: K-562 leukemia
[51] = system: MCF7 breast
[52] = system: CCRF-CEM leukemia
[53] = system: A549 NSCLC
[54] = system: RPMI-8226 leukemia
[55] = system: HL-60(TB) leukemia
[56] = system: U251 CNS
[57] = system: HS 578T breast
[58] = system: OVCAR-8 ovarian
[59] = system: HCT-116 colon

SMILES: Cc1ccc(NC(=O)N/N=C/c2c[nH]c3ccccc23)c(C)c1
- GI50 [1]: 0.343 µM
- TGI [1]: 5.6 µM
- GI50 [2]: 0.596 µM
- TGI [2]: 23.9 µM
- GI50 [3]: 0.205 µM
- TGI [3]: 10.1 µM
- GI50 [4]: 0.178 µM
- TGI [4]: 0.543 µM
- GI50 [5]: 0.226 µM
- TGI [5]: 8.13 µM
- GI50 [6]: 0.378 µM
- TGI [6]: 20.1 µM
- GI50 [7]: 0.357 µM
- TGI [7]: 15.7 µM
- GI50 [8]: 0.0785 µM
- TGI [8]: > 34.9 µM
- GI50 [9]: 0.217 µM
- TGI [9]: 0.7 µM
- GI50 [10]: 0.391 µM
- TGI [10]: 25.3 µM
- GI50 [11]: 0.469 µM
- TGI [11]: > 100 µM
- GI50 [12]: 12.7 µM
- TGI [12]: 38.4 µM
- GI50 [13]: 0.492 µM
- TGI [13]: 4.53 µM
- GI50 [14]: 0.164 µM
- TGI [14]: 1.04 µM
- GI50 [15]: 0.269 µM
- TGI [15]: > 32.8 µM
- GI50 [16]: 0.828 µM
- TGI [16]: 23.4 µM
- GI50 [17]: 0.637 µM
- TGI [17]: > 57.6 µM
- GI50 [18]: 0.138 µM
- TGI [18]: 1.8 µM
- GI50 [19]: 0.554 µM
- TGI [19]: 27.2 µM
- GI50 [20]: 1.6 µM
- TGI [20]: 19 µM
- GI50 [21]: 0.419 µM
- TGI [21]: 8.97 µM
- GI50 [22]: 0.0281 µM
- TGI [22]: 0.11 µM
- GI50 [23]: 0.458 µM
- TGI [23]: > 67 µM
- GI50 [24]: 0.343 µM
- TGI [24]: 26.2 µM
- GI50 [25]: 0.258 µM
- TGI [25]: 0.627 µM
- GI50 [26]: 1.45 µM
- TGI [26]: > 79.3 µM
- GI50 [27]: 0.203 µM
- TGI [27]: > 100 µM
- GI50 [28]: 2.59 µM
- TGI [28]: 39.6 µM
- GI50 [29]: 0.573 µM
- TGI [29]: 47.5 µM
- GI50 [30]: 0.481 µM
- TGI [30]: 13.9 µM
- GI50 [31]: 0.432 µM
- TGI [31]: 19.4 µM
- GI50 [32]: 0.517 µM
- TGI [32]: > 100 µM
- GI50 [33]: 0.0336 µM
- TGI [33]: > 21.9 µM
- GI50 [34]: 5.49 µM
- TGI [34]: > 100 µM
- GI50 [35]: 0.175 µM
- TGI [35]: 12.8 µM
- GI50 [36]: 0.261 µM
- TGI [36]: > 44 µM
- GI50 [37]: 0.361 µM
- TGI [37]: 1.59 µM
- GI50 [38]: 0.267 µM
- TGI [38]: 6.23 µM
- GI50 [39]: 0.241 µM
- TGI [39]: 19.1 µM
- GI50 [40]: 0.565 µM
- TGI [40]: 15.5 µM
- GI50 [41]: 0.151 µM
- TGI [41]: 5.27 µM
- GI50 [42]: 0.418 µM
- TGI [42]: 12.2 µM
- GI50 [43]: 0.0379 µM
- TGI [43]: 0.327 µM
- GI50 [44]: 0.363 µM
- TGI [44]: 78 µM
- GI50 [45]: 0.239 µM
- TGI [45]: 12 µM
- GI50 [46]: 2.5 µM
- TGI [46]: > 100 µM
- GI50 [47]: 0.0689 µM
- TGI [47]: 0.631 µM
- GI50 [48]: 0.495 µM
- TGI [48]: 5.41 µM
- GI50 [49]: 0.365 µM
- TGI [49]: 8.33 µM
- GI50 [50]: 0.0418 µM
- TGI [50]: > 100 µM
- GI50 [51]: 0.235 µM
- TGI [51]: 27.9 µM
- GI50 [52]: 0.308 µM
- TGI [52]: > 40 µM
- GI50 [53]: 0.588 µM
- TGI [53]: 45.9 µM
- GI50 [54]: 0.373 µM
- TGI [54]: 25.6 µM
- GI50 [55]: 0.0997 µM
- TGI [55]: 2.73 µM
- GI50 [56]: 0.316 µM
- TGI [56]: 12.8 µM
- GI50 [57]: 0.281 µM
- TGI [57]: 23.1 µM
- GI50 [58]: 0.378 µM
- TGI [58]: 3.11 µM
- GI50 [59]: 0.245 µM
- TGI [59]: 4.79 µM
